According to ChEMBL document CHEMBL6083208, “Integrating amino acids into Bcr-Abl inhibitors: design, synthesis, biological evaluation, and in silico studies” (RSC Med Chem, 2024):
Activity calls are given as the source filed them. No cut-off for these calls is given here.

Legend:
K562 [1] = assay: Induction of cell cycle arrest in human K562 cells assessed as increase in accumulation of cells at G2/M phase at 1 to 20 uM measured after 48 hrs by PI staining based flow cytometry analysis; type: functional; details: dose 1-20 µM
BaF3 [2] = assay: Antiproliferative activity against mouse BaF3 cells harbouring Bcr-Abl T315I assessed of cell viability at 30 uM incubated for 72 hrs by Celltiter-glo luminescent cell viability assay relative to control; type: functional
K562 [3] = assay: Induction of apoptosis in human K562 cells assessed as necrotic cells at 1 uM measured after 48 hrs by annexin-V/FITC and propidium iodide double staining based flow cytometry analysis (reference value: 1.05%); type: functional
[4] = molecular target: T1, Bcr/Abl fusion protein (Homo sapiens) (UniProt P00519+P11274); assay: Inhibition of wild type BCR-ABL in human K562 cells assessed as inhibition of Bcr-Abl phosphorylation level at 1 uM measured after 48 hrs by Western blot analysis; type: cell-based
T1 sequence (P00519 whole entry, looked up, the tested form may be a part): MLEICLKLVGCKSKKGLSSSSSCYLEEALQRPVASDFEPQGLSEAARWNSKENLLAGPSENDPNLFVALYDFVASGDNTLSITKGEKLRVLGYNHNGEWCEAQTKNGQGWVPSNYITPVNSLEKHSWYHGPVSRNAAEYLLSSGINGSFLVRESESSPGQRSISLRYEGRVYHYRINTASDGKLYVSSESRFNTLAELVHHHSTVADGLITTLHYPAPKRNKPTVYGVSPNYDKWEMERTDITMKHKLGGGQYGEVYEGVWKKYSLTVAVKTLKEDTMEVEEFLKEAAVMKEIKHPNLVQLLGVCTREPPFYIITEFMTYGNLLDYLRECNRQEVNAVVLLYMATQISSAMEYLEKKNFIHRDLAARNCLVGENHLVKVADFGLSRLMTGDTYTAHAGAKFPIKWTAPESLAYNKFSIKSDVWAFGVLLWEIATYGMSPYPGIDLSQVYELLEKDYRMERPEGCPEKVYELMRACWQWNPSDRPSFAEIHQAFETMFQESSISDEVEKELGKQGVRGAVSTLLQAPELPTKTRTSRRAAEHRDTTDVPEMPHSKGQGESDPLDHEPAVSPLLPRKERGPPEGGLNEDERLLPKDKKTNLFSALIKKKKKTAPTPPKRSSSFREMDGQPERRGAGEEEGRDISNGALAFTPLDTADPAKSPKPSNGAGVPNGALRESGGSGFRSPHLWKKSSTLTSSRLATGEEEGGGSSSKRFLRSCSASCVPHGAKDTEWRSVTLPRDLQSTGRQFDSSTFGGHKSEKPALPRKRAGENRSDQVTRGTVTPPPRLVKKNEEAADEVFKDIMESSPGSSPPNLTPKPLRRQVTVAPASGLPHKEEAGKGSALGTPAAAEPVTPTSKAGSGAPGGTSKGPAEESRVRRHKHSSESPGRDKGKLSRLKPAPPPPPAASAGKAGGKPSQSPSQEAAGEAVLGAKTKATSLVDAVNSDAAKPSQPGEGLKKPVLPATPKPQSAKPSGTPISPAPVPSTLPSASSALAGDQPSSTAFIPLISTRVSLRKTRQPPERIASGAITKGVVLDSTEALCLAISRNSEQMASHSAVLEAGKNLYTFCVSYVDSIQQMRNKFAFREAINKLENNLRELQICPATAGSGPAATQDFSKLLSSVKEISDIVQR
T1 sequence (P11274 whole entry, looked up, the tested form may be a part): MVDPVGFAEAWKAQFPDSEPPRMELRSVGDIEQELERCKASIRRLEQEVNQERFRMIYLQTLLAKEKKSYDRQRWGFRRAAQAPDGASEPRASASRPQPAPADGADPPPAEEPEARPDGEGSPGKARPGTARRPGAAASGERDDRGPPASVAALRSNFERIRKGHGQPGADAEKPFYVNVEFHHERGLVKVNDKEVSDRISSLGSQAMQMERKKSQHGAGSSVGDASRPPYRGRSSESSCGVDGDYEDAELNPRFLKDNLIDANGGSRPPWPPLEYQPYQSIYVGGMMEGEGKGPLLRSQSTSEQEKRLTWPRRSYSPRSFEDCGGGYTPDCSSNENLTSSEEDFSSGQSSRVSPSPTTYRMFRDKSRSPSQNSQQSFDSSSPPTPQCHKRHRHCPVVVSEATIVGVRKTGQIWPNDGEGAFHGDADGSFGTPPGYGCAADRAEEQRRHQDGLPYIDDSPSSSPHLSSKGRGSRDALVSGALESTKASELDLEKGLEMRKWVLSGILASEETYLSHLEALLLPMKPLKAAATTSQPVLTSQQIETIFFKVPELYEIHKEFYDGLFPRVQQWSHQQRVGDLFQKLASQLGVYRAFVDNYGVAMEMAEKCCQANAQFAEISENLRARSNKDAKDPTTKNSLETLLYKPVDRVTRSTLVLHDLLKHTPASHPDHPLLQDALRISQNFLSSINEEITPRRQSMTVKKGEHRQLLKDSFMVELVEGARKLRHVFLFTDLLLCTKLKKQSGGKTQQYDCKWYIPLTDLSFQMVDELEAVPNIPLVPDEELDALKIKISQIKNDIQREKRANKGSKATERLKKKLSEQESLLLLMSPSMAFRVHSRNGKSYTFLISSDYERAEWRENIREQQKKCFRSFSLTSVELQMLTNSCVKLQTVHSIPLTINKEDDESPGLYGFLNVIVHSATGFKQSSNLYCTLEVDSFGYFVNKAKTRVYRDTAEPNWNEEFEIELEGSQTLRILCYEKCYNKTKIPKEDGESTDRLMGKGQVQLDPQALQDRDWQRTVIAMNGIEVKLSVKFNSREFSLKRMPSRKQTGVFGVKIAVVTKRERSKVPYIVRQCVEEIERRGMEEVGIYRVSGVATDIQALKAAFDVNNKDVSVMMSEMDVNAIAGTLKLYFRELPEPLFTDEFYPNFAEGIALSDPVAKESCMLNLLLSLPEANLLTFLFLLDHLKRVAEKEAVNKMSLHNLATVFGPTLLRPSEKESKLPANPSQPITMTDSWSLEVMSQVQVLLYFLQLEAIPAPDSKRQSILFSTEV

K562 [5] = assay: Induction of apoptosis in human K562 cells assessed as necrotic cells at 15 uM measured after 48 hrs by annexin-V/FITC and propidium iodide double staining based flow cytometry analysis (reference value: 1.05%); type: functional
K562 [6] = assay: Induction of apoptosis in human K562 cells assessed as viable cells at 10 uM measured after 48 hrs by annexin-V/FITC and propidium iodide double staining based flow cytometry analysis (reference value: 92.67%); type: functional; details: read-out: Activity
[7] = molecular target: T1, Bcr/Abl fusion protein (Homo sapiens); assay: Inhibition of wild type BCR-ABL in human K562 cells assessed as inhibition of STAT5 phosphorylation level measured after 48 hrs by Western blot analysis; type: cell-based; details: dose 0.1-15 µM
K562 [8] = assay: Induction of apoptosis in human K562 cells assessed as late apoptotic cells at 10 uM measured after 48 hrs by annexin-V/FITC and propidium iodide double staining based flow cytometry analysis (reference value: 2.72%); type: functional
BaF3 [9] = assay: Antiproliferative activity against mouse BaF3 cells harbouring Bcr-Abl T315I assessed of cell viability at 10 uM incubated for 72 hrs by Celltiter-glo luminescent cell viability assay relative to control; type: functional
K562 [10] = assay: Induction of apoptosis in human K562 cells assessed as early apoptotic cells at 15 uM measured after 48 hrs by annexin-V/FITC and propidium iodide double staining based flow cytometry analysis (reference value: 3.57%); type: functional
K562 [11] = assay: Induction of apoptosis in human K562 cells assessed as early apoptotic cells at 1 uM measured after 48 hrs by annexin-V/FITC and propidium iodide double staining based flow cytometry analysis (reference value: 3.57%); type: functional
BaF3 [12] = assay: Antiproliferative activity against mouse BaF3 cells harbouring Bcr-Abl T315I assessed of cell viability at 2 uM incubated for 72 hrs by Celltiter-glo luminescent cell viability assay relative to control; type: functional
K562 [13] = assay: Induction of cell cycle arrest in human K562 cells assessed as reduction in accumulation of cells at S phase at 1 to 20 uM measured after 48 hrs by PI staining based flow cytometry analysis; type: functional; details: dose 1-20 µM
K562 [14] = assay: Induction of apoptosis in human K562 cells assessed as viable cells at 15 uM measured after 48 hrs by annexin-V/FITC and propidium iodide double staining based flow cytometry analysis (reference value: 92.67%); type: functional; details: read-out: Activity
[15] = molecular target: T1, Bcr/Abl fusion protein (Homo sapiens); assay: Inhibition of wild type BCR-ABL in human K562 cells assessed as inhibition of Bcr-Abl phosphorylation level at 20 uM measured after 48 hrs by Western blot analysis; type: cell-based
K562 [16] = assay: Induction of apoptosis in human K562 cells assessed as necrotic cells at 10 uM measured after 48 hrs by annexin-V/FITC and propidium iodide double staining based flow cytometry analysis (reference value: 1.05%); type: functional
THP-1 = assay: Antiproliferative activity against human THP-1 cells after 48 hrs by MTT assay; type: functional; design: concentration or dose not given beside the values
K562 [17] = assay: Induction of apoptosis in human K562 cells assessed as viable cells at 1 uM measured after 48 hrs by annexin-V/FITC and propidium iodide double staining based flow cytometry analysis (reference value: 92.67%); type: functional; details: read-out: Activity
K562 [18] = assay: Induction of apoptosis in human K562 cells assessed as late apoptotic cells at 1 uM measured after 48 hrs by annexin-V/FITC and propidium iodide double staining based flow cytometry analysis (reference value: 2.72%); type: functional
[19] = Inhibition of Bcr-Abl T315Ialpha mutant (unknown origin) using Abltide as substrate incubated for 1 hr by luminescence based ADP-glo assay; design: species or system Homo sapiens
[20] = molecular target: T1, Bcr/Abl fusion protein (Homo sapiens); assay: Inhibition of wild type BCR-ABL in human K562 cells assessed as inhibition of STAT5 phosphorylation level at 20 uM measured after 48 hrs by Western blot analysis; type: cell-based
K562 [21] = assay: Induction of cell cycle arrest in human K562 cells assessed as increase in accumulation of cells at G0/G1 phase at 1 to 20 uM measured after 48 hrs by PI staining based flow cytometry analysis; type: functional; details: dose 1-20 µM
HEK293 = assay: Antiproliferative activity against HEK293 cells after 48 hrs by MTT assay; type: toxicity, cell-based; design: concentration or dose not given beside the values; details: human, hek293, 48 h
Bcr/Abl fusion protein = Bcr/Abl fusion protein (Homo sapiens, UniProt P00519); assay: Inhibition of wild type Bcr-Abl (unknown origin) using Abltide as substrate incubated for 1 hr by luminescence based ADP-glo assay; type: protein assay
Sequence of Bcr/Abl fusion protein (P00519 whole entry, the tested form may be a part): as the sequence (P00519 whole entry, looked up, the tested form may be a part) above
Sequence of Bcr/Abl fusion protein (P11274 whole entry, further chain, the tested form may be a part): as the sequence (P11274 whole entry, looked up, the tested form may be a part) above

K562 [22] = assay: Induction of apoptosis in human K562 cells assessed as late apoptotic cells at 15 uM measured after 48 hrs by annexin-V/FITC and propidium iodide double staining based flow cytometry analysis (reference value: 2.72%); type: functional
K562 [23] = assay: Induction of apoptosis in human K562 cells assessed as early apoptotic cells at 10 uM measured after 48 hrs by annexin-V/FITC and propidium iodide double staining based flow cytometry analysis (reference value: 3.57%); type: functional
K562 [24] = assay: cells; details: Homo sapiens, K562, 48 h
K562 [25] = assay: Induction of apoptosis in human K562 cells assessed as necrotic cells at 10 uM measured after 48 hrs by annexin-V/FITC and propidium iodide double staining based flow cytometry analysis (reference value: 0.03%); type: functional
K562 [26] = assay: Induction of apoptosis in human K562 cells assessed as viable cells at 20 uM measured after 48 hrs by annexin-V/FITC and propidium iodide double staining based flow cytometry analysis (reference value: 87.47%); type: functional; details: read-out: Activity
K562 [27] = assay: Induction of apoptosis in human K562 cells assessed as early apoptotic cells at 1 uM measured after 48 hrs by annexin-V/FITC and propidium iodide double staining based flow cytometry analysis (reference value: 2.16%); type: functional
K562 [28] = assay: Induction of apoptosis in human K562 cells assessed as necrotic cells at 1 uM measured after 48 hrs by annexin-V/FITC and propidium iodide double staining based flow cytometry analysis (reference value: 0.03%); type: functional
K562 [29] = assay: Induction of apoptosis in human K562 cells assessed as early apoptotic cells at 20 uM measured after 48 hrs by annexin-V/FITC and propidium iodide double staining based flow cytometry analysis (reference value: 2.16%); type: functional
K562 [30] = assay: Induction of apoptosis in human K562 cells assessed as early apoptotic cells at 10 uM measured after 48 hrs by annexin-V/FITC and propidium iodide double staining based flow cytometry analysis (reference value: 2.16%); type: functional
K562 [31] = assay: Induction of apoptosis in human K562 cells assessed as late apoptotic cells at 10 uM measured after 48 hrs by annexin-V/FITC and propidium iodide double staining based flow cytometry analysis (reference value: 10.34%); type: functional
K562 [32] = assay: Induction of apoptosis in human K562 cells assessed as necrotic cells at 20 uM measured after 48 hrs by annexin-V/FITC and propidium iodide double staining based flow cytometry analysis (reference value: 0.03%); type: functional
[33] = molecular target: T1, Bcr/Abl fusion protein (Homo sapiens); assay: Inhibition of wild type BCR-ABL in human K562 cells assessed as inhibition of STAT5 phosphorylation level at high concentration measured after 48 hrs by Western blot analysis; type: cell-based
K562 [34] = assay: Induction of cell cycle arrest in human K562 cells assessed as increase in accumulation of cells at G0/G1 phase measured after 48 hrs by PI staining based flow cytometry analysis; type: functional; details: dose 1-20 µM
K562 [35] = assay: Induction of apoptosis in human K562 cells assessed as viable cells at 1 uM measured after 48 hrs by annexin-V/FITC and propidium iodide staining double based flow cytometry analysis (reference value: 87.47%); type: functional; details: read-out: Activity
K562 [36] = assay: Induction of apoptosis in human K562 cells assessed as late apoptotic cells at 20 uM measured after 48 hrs by annexin-V/FITC and propidium iodide double staining based flow cytometry analysis (reference value: 10.34%); type: functional
K562 [37] = assay: Induction of apoptosis in human K562 cells assessed as late apoptotic cells at 1 uM measured after 48 hrs by annexin-V/FITC and propidium iodide double staining based flow cytometry analysis (reference value: 10.34%); type: functional
K562 [38] = assay: Induction of apoptosis in human K562 cells assessed as viable cells at 10 uM measured after 48 hrs by annexin-V/FITC and propidium iodide double staining based flow cytometry analysis (reference value: 87.47%); type: functional; details: read-out: Activity
[39] = molecular target: T1, Bcr/Abl fusion protein (Homo sapiens); assay: Inhibition of wild type BCR-ABL in human K562 cells assessed as inhibition of Bcr-Abl phosphorylation level at high concentration measured after 48 hrs by Western blot analysis; type: cell-based

SMILES	inhibition at 30 µM (BaF3 [2])	inhibition at 10 µM (BaF3 [9])	inhibition at 2 µM (BaF3 [12])	inhibition [15]	Activity (THP-1)	IC50 [19]	inhibition [20]	Activity (HEK293)	IC50 (Bcr/Abl fusion protein)	IC50 (K562 [24])	also measured
CC(C)(C)[C@H](NC(=O)c1cccc(-c2ccc(NS(C)(=O)=O)nc2)c1)C(=O)Nc1ccc(Cl)c(C(F)(F)F)c1	99.6%	100%	10%	Active	65%	48 nM	Active	100%	1.44 nM	0.61 nM	Activity (K562 [1]): Active; Activity (K562 [3]): 0.17%; inhibition [4]: Active; Activity (K562 [5]): 0.28%; viability at 10 µM (K562 [6]): 82.8%; inhibition [7]: Dose-dependent-effect; Activity (K562 [8]): 8.64%; Activity (K562 [10]): 8.69%; Activity (K562 [11]): 7.15%; Activity (K562 [13]): Active; viability at 15 µM (K562 [14]): 82.5%; Activity (K562 [16]): 0.4%; viability at 1 µM (K562 [17]): 88.2%; Activity (K562 [18]): 4.45%; Activity (K562 [21]): Active; Activity (K562 [22]): 8.48%; Activity (K562 [23]): 8.2%
CC(=O)Nc1cc(-c2ccc(C(=O)N[C@@H](COC(C)(C)C)C(=O)Nc3ccc(Cl)c(C(F)(F)F)c3)cc2)ccn1	98.1%	64.1%	7.66%	Active	66%	37.5 nM	Active	95%	0.231 nM	0.06 nM	Activity (K562 [25]): 0.07%; viability at 20 µM (K562 [26]): 31.8%; Activity (K562 [27]): 1.37%; Activity (K562 [28]): 0.07%; Activity (K562 [29]): 1.52%; Activity (K562 [30]): 1.64%; Activity (K562 [31]): 38.85%; Activity (K562 [32]): 0.07%; inhibition [33]: Active; Activity (K562 [34]): Dose-dependent-effect; viability at 1 µM (K562 [35]): 73.9%; Activity (K562 [36]): 66.61%; Activity (K562 [37]): 24.67%; viability at 10 µM (K562 [38]): 59.4%; inhibition [39]: Active
CC(C)(C)OC[C@H](NC(=O)c1cccc(-c2ccc(NS(C)(=O)=O)nc2)c1)C(=O)Nc1ccc(Cl)c(C(F)(F)F)c1	96.7%	99.9%	0.62%		77%	138 nM		88%	10.6 nM	2.59 nM	
CC(C)(C)OC[C@H](NC(=O)c1ccc(-c2ccnc(N)c2)cc1)C(=O)Nc1ccc(Cl)c(C(F)(F)F)c1	99.8%	25.5%	0.7%		56%	144 nM		94%	0.87 nM	3.02 nM	
